Source: PMC10539501 (Nature Communications, 2023)
Like-named read-outs stand apart in the source and are kept apart here. Each block holds one molecule with its values, some of them ahead of it. Starred links: 1 amine or outer side, 2 acyl side, 3 side chain; linkers in the order of their positions; H or OH if unused. Non-standard residues stand in square brackets, D forms with d. Residues, ends and D or L forms follow the SMILES beside them. X9 = O=C([C@@H]1CCCN1C(=S)[C@H](Cc1ccccc1)N[*:1])[*:2]

Columns and labels:
SSTR5 = target: T1, SSTR5 (Homo sapiens, UniProt P35346); experiment: GloSensor assay, inhibition of forskolin-induced cAMP production; type: cell-based
T1 construct: expressed in transfected cells; host or cells: HEK-293T (CRL-3216)
T1 sequence (P35346 whole entry): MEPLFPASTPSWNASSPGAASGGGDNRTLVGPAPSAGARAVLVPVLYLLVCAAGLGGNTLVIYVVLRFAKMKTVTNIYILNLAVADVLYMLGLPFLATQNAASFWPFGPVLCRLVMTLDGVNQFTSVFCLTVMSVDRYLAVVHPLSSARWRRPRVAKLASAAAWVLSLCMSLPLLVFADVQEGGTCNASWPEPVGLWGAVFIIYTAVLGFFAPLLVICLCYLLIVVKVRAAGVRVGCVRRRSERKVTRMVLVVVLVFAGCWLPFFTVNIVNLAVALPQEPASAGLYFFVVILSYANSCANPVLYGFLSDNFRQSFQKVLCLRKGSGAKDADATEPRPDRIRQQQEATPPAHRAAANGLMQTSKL
Procedure: HEK-293T cells (CRL-3216 from ATCC, procured from NCCS, Pune) were co-transfected with human somatostatin receptor subtypes 2 & 5, plasmid cDNA, and cAMP biosensor (pGloSensorTM-22F plasmid; Promega Corp.) using PEImax. Ligand incubation was followed by the addition and incubation of forskolin (FSK) to the plate. Dose-dependent inhibition of forskolin-induced cAMP production by the peptide ligands was measured using a luminescence plate reader. An elaborate description of the assay setup has been provided in Supplementary Information.

in vitro [1] = details: both, human, plasma
physchem = details: pH 7.4
SSTR2 = target: T2, SSTR2 (Homo sapiens, UniProt P30874); experiment: GloSensor assay, inhibition of forskolin-induced cAMP production; type: cell-based
T2 construct: expressed in transfected cells; host or cells: HEK-293T (CRL-3216)
T2 sequence (P30874 whole entry): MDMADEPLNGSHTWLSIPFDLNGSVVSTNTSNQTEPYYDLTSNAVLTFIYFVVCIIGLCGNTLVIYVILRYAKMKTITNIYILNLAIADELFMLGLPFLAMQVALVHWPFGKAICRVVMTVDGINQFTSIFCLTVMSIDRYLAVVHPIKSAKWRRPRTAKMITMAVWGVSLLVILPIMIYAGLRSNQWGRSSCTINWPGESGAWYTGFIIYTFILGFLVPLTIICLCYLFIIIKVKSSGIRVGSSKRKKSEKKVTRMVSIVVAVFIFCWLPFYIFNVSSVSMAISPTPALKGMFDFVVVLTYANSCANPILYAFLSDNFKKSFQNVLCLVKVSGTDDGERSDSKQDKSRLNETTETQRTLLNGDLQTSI

in vitro [2] = details: both, human, plasma; remark: listed apart in the source
[3] = PAMPA passive permeability; type: in vitro ADME; details: Pe;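 further: passive permeability across an artificial membrane in 96-well pre-coated PAMPA plates, which lack transporters and efflux systems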
Procedure: Encouraged by this, the passive permeability of the analogs was evaluated using an artificial membrane (PAMPA), which measures permeability of compounds in the absence of transporters and efflux systems[32].
96-well BD Corning® pre-coated PAMPA plates were used following the supplier’s protocol, details in Supplementary Information.

in vivo [4] = details: male, rat, sc; for half-life: Sprague-Dawley
Procedure: Subsequently, we selected 13a, 13b, 13d, and 13e for assessing their plasma exposure post single dose subcutaneous injection into male Sprague Dawley rats.
(§1) All animals were housed individually in the animal facility at Anthem Biosciences Pvt. Ltd and were acclimatized for 3 days. All animals were fasted overnight before dosing, whereas access to water was provided ad libitum. Peptides were administered orally and via s.c. route and blood samples were collected at different time points through a jugular vein catheter.

[5] = type: physicochemical
[6] = Retention in hydrophobic C18 column by HPLC; details: Supplementary Fig 3d, logD7.4 vs tR
pepsin [7] = target: T3, pepsin (Sus scrofa, UniProt P00791); experiment: in vitro; details: simulated gastric fluid, pH 1.2
T3 sequence (P00791 60-385): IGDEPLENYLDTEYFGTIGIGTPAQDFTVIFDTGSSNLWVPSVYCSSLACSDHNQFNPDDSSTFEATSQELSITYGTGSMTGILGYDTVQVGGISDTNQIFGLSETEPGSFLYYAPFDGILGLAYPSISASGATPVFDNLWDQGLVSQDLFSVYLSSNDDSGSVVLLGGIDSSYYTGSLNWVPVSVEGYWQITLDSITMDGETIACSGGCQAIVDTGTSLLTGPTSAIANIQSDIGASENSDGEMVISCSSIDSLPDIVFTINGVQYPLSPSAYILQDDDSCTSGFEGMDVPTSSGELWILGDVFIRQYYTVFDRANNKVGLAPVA
Procedure: (§2) A stability assessment of the peptides was done in simulated gastric (SGF) and intestinal (SIF) fluids and human liver microsomes. The degradation kinetics of the aliquoted samples at desired time points were analyzed through RP-HPLC.

in vivo [8] = details: male, Wistar, rat
Procedure: as §1

[9] = rat, in vivo
Procedure: as §1

[10] = type: physicochemical; remark: listed apart in the source
[11] = HDX of amide protons by NMR in CDCl3:CD3OD (8:2)
Procedure: (§3) As hydrogen bonding and solvation of NH groups play an important role in the permeability of macrocycles, we determined the solvent accessibility of individual amide protons in 10 and 10a–10f by hydrogen-deuterium exchange (HDX) through NMR spectroscopy (Figs. 2a–c).
(§4) Spectra were recorded on a Bruker AV 500 MHz spectrometer at 25 °C.

in vitro [12] = details: pig, simulated intestinal fluid
Procedure: We next assessed the stability of the macrocyclic peptides in Simulated Intestinal Fluid (SIF)[42], comprising of pancreatin, which is a mixture of several proteases produced by the exocrine cells of the porcine pancreas.
as §2

pepsin [13] = target: T3, pepsin; details: pH 1.2
Procedure: as §2

in vitro [14] = details: human, microsomes
Procedure: as §2

[15] = HDX of amide protons by NMR in DMSO-d6:D2O (8:2)
Procedure: as §3, §4

[16] = test system: growth hormone (GH) release; experiment: In vivo inhibition of growth hormone release (sandwich ELISA); parameters: species or system rats
Procedure: In vivo inhibition of GH. Finally, we estimated the in vivo efficacy of 13 and the thioamidated analogs 13b, 13d, and 13e in suppressing the release of growth hormone (GH) post subcutaneous injection at 250 μg/kg dosage (Fig. 7e). 13a was also included as a negative control to assess its effect on GH release. The rats were bled from their orbital sinus, and the plasma GH levels were evaluated through sandwich ELISA. […] This correlates well with the high plasma concentration of 13 at the initial time points and a rapid drop within 2 h of s.c. administration (Fig. 7c). […] In contrast, the inhibitory effect lasts longer in 13b, 13d, and 13e showing a significant reduction in plasma GH levels within 24–48 h (Fig. 7h). […] The rapid drop in plasma concentration of 13 is responsible for its least in vivo efficacy.
Animal housing and acclimatization were done at Central Animal Facility, IISc Bangalore, as mentioned in the previous section, following protocols from the IEAC and CPCSEA. […] Samples were processed as discussed in Supplementary Information, and sandwich ELISA was performed to measure the growth hormone level in blood plasma. For acute toxicity, after peptide injection (s.c.), blood samples were collected on the 14th day for liver and kidney function tests.

[17] = blood plasma, cited from earlier work
Description: Next, we sought to assess the in vivo efficacy of the thioamidated somatostatin analogs post s.c. administration. Somatostatin, first known to inhibit the release of growth hormone, induces its biological effects by interacting with five of its G-protein-coupled receptor subtypes SSTR1-SSTR5[50]. Out of which, the SSTR2 and SSTR5 have gained significant attention due to their role in mediating the inhibition of growth hormone and antiproliferative effects of somatostatin on tumor growth. […]

[18] = 20% CD3OD in CDCl3, % remaining after 24 hours

Procedure for human liver microsomes: as §2

IC50 (SSTR5): > 10000 nM | fraction unbound (in vitro [1]): 0.11 | logD (physchem): -0.84 | t1/2 in human blood plasma: 42 h | IC50 (SSTR2; read-out: IC50 sstr2): 20.3 ± 11.9 nM | half-life (in vitro [2]): 2520 min | Papp [3]: 2.29 ×10⁻⁶ cm/s | level at 0.5 h (in vivo [4]; Sprague Dawley): 92 ng/mL | level at 1 h (in vivo [4]; Sprague Dawley): 77 ng/mL | half-life (in vivo [4]): 66 ± 24 min | logD heptane ethylene glycol [5]: -0.94
SMILES: C[C@@H](O)[C@@H]1NC(=O)[C@H](CCCCN)NC(=O)[C@@H](Cc2c[nH]c3ccccc23)NC(=O)[C@H](Cc2ccccc2)NC(=O)[C@@H]2CCCN2C(=S)[C@H](Cc2ccccc2)NC1=O [13d] (cyclo(F[dW]KT[X9]))

tR [6]: 9.3 min | fraction unbound (in vitro [1]): 0.51 | t1/2 in human blood plasma: 8 h | Half lives (human liver microsomes): 6.7 | Intrinsic clearance (CLint) Avg (human liver microsomes; human): 225 µL/min/mg | half-life (in vitro [2]): 480 min | remaining at 1 h (in vitro [2]): 86% | remaining at 3 h (in vitro [2]): 80% | remaining at 5 h (in vitro [2]): 67% | remaining at 7 h (in vitro [2]): 59% | remaining at 9 h (in vitro [2]): 43% | remaining at 12 h (in vitro [2]): 37% | remaining at 24 h (in vitro [2]): 24% | remaining at 36 h (in vitro [2]): 19% | remaining at 48 h (in vitro [2]): 13% | remaining at 60 h (in vitro [2]): 4% | remaining at 72 h (in vitro [2]): 4% | half-life (pepsin [7]): 12 min | remaining at 5 min (pepsin [7]): 67% | remaining at 10 min (pepsin [7]): 54% | remaining at 20 min (pepsin [7]): 40% | remaining at 0.5 h (pepsin [7]): 34% | remaining at 1 h (pepsin [7]): 22% | remaining at 2 h (pepsin [7]): 16% | remaining at 4 h (pepsin [7]): 10% | remaining at 8 h (pepsin [7]): 6% | remaining at 12 h (pepsin [7]): 2% | remaining at 24 h (pepsin [7]): 0% | AUC(0-t) (in vivo [8]; iv): 548 ng·h/mL | Cmax (in vivo [8]; iv): 1050 ng/mL | MRT (in vivo [8]; iv): 96 min | Vd (in vivo [8]; iv): 4.1 L/kg | clearance (in vivo [8]; iv): 28.4 mL/min/kg | AUC(0-t) (in vivo [8]; po, 10 mg/kg): 0.9 ng·h/mL | Cmax (in vivo [8]; po, 10 mg/kg): 3.5 ng/mL | MRT (in vivo [8]; po, 10 mg/kg): 12 min | %F [9]: 0% | time over which the peptide is detectable in plasma ([9]; po, 10 mg/kg): ≤ 1 h | % solubility [10]: 97% | logD heptane ethylene glycol [5]: 0.46 | Half-life of D-Leu1 amide proton (HDX) ([11]; 20% CD3OD in CDCl3): 435 min | Half-life of Leu2 amide proton (HDX) ([11]; 20% CD3OD in CDCl3): 2 min | Half-life of Leu3 amide proton (HDX) ([11]; 20% CD3OD in CDCl3): > 1440 min | Half-life of Leu6 amide proton (HDX) ([11]; 20% CD3OD in CDCl3): > 1440 min | Half-life of Tyr5 amide proton (HDX) ([11]; 20% CD3OD in CDCl3): 105 min | % intact NH, Leu3 [11, 18]: 72% | % intact NH, Leu6 [11, 18]: 90% | half-life (in vitro [12]): 16 min | remaining at 10 min (in vitro [12]): 57.1% | remaining at 0.5 h (in vitro [12]): 39% | remaining at 1 h (in vitro [12]): 30.7% | remaining at 2 h (in vitro [12]): 13.4% | remaining at 4 h (in vitro [12]): 12% | remaining at 8 h (in vitro [12]): 7.3% | remaining at 12 h (in vitro [12]): 5.5% | remaining at 24 h (in vitro [12]): 3% | Half lives (SGF) set1 (pepsin [13]): 10 min | remaining at 5 min (in vitro [14]): 55% | remaining at 10 min (in vitro [14]): 40% | remaining at 20 min (in vitro [14]): 33% | remaining at 0.5 h (in vitro [14]): 29% | remaining at 0.75 h (in vitro [14]): 22% | remaining at 1 h (in vitro [14]): 14% | Half-life of D-Leu1 amide proton (HDX) ([15]; HDX by NMR, 20% D2O in DMSO-d6): 15 min | Half-life of Leu2 amide proton (HDX) ([15]; HDX by NMR, 20% D2O in DMSO-d6): 91 min | Half-life of Leu3 amide proton (HDX) ([15]; HDX by NMR, 20% D2O in DMSO-d6): 197 min | Half-life of Leu6 amide proton (HDX) ([15]; HDX by NMR, 20% D2O in DMSO-d6): 470 min | Half-life of Tyr5 amide proton (HDX) ([15]; HDX by NMR, 20% D2O in DMSO-d6): 49 min
SMILES: CC(C)C[C@@H]1NC(=O)[C@H](Cc2ccc(O)cc2)NC(=O)[C@H]2CCCN2C(=O)[C@H](CC(C)C)NC(=O)[C@H](CC(C)C)NC(=O)[C@@H](CC(C)C)NC1=O [compound 10, cyclo(-D-Leu^1-Leu-Leu-D-Pro-Tyr-Leu^6-)] (cyclo(LL[dP]YL[dL]))

SMILES: C[C@@H](O)[C@@H]1NC(=O)[C@H](CCCCN)NC(=O)[C@@H](Cc2c[nH]c3ccccc23)NC(=O)[C@H](Cc2ccccc2)NC(=O)[C@@H]2CCCN2C(=O)[C@H](Cc2ccccc2)NC1=O [compound 13, cyclo(-D-Trp^1-Lys-Thr-Phe-Pro-Phe^6-)] (cyclo(PF[dW]KTF))
AUC 0_24 ([16]; growth hormone AUC 0-24 h, mean of n = 3): 504 ng·h/mL | AUC 0_48 ([16]; growth hormone AUC 0-48 h, mean of n = 3): 1371 ng·h/mL | AUC 24_48 ([16]; growth hormone AUC 24-48 h, mean of n = 3): 817 ng·h/mL | inhibition of unstimulated GH release ([16]; rats, 250 μg/kg s.c., plasma GH by sandwich ELISA over 48 h): significant inhibition | IC50 (SSTR5): 105 ± 24.2 nM | fraction unbound (in vitro [1]): 0.24 | logD (physchem): -1.23 | t1/2 in human blood plasma: 15 ± 0.9 h | IC50 (SSTR2): 16.6 ± 4.2 nM | half-life (in vitro [2]): 840 min | Papp [3]: 1.34 ×10⁻⁶ cm/s | level at 0.5 h (in vivo [4]; Sprague Dawley): 195 ng/mL | level at 1 h (in vivo [4]; Sprague Dawley): 128 ng/mL | level at 2 h (in vivo [4]; Sprague Dawley, 250 ug/kg): 8 ng/mL | half-life (in vivo [4]): 18 ± 3 min | logD heptane ethylene glycol [5]: -1.43 | half-life (in vitro [12]): 108 min | t1/2 for all HNs (HDX) ([15]; HDX experiment by NMR, solvent not stated at the place (Supplementary Fig. 18)): < 5 min | Half-lives (min), amide proton D-Trp1 ([15]; Supplementary Fig 18b, HDX of amide proton of D-Trp1, solvent not given): >5 min | Half-lives (min), amide proton Lys2 ([15]; Supplementary Fig 18b, HDX of amide proton of Lys2, solvent not given): >5 min | Half-lives (min), amide proton Phe4 ([15]; Supplementary Fig 18b, HDX of amide proton of Phe4, solvent not given): >5 min | Half-lives (min), amide proton Phe6 ([15]; Supplementary Fig 18b, HDX of amide proton of Phe6, solvent not given): >5 min | Half-lives (min), amide proton Thr3 ([15]; Supplementary Fig 18b, HDX of amide proton of Thr3, solvent not given): >5 min

SMILES: C[C@H](N)C(=O)NCC(=O)N[C@H]1CSSC[C@@H](C(=O)O)NC(=O)[C@H](CO)NC(=O)[C@H]([C@@H](C)O)NC(=O)[C@H](Cc2ccccc2)NC(=O)[C@H]([C@@H](C)O)NC(=O)[C@H](CCCCN)NC(=O)[C@H](Cc2c[nH]c3ccccc23)NC(=O)[C@H](Cc2ccccc2)NC(=O)[C@H](Cc2ccccc2)NC(=O)[C@H](CC(N)=O)NC(=O)[C@H](CCCCN)NC1=O [SRIF-14]
plasma half-life [17]: 3 min | plasma half-life ([17]; listed as native somatostatin): ~ 3 min
